Results on 10 compounds are retold here after PubChem BioAssay (NCI).

Some test systems named below: KM12 colon; SNB-19 CNS; OVCAR-8 ovarian; M14 melanoma; SK-MEL-2 melanoma; DU-145 prostate; ACHN renal; UO-31 renal; LOX IMVI melanoma; UACC-257 melanoma.
What all share (assay): NCI anticancer screen, dose series, 48 h

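Growth conditions: 96-well plates. Treatment: test compound, 48 hours, 5 concentrations. Analysis: linear interpolation between bracketing concentrations; unreached endpoints set to highest concentration. The concentration for 50% growth inhibition is given as GI50. TGI marks complete inhibition of growth.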

Turning to `COc1cccc(C2c3cc4c(cc3OC(N3CCCC3)C2C)OCO4)c1O` (stereo not drawn), the TGI in the assay with KM12 colon is 19.8 µM; in the assay with SNB-19 CNS, greater than 100 µM; with OVCAR-8 ovarian, 42 µM; in the assay on M14 melanoma, 12.6 µM; in the assay with SK-MEL-2 melanoma it was 30.4 µM; in the assay on DU-145 prostate, greater than 36.9 µM. The TGI in the assay with ACHN renal is greater than 88.7 µM; in the assay with UO-31 renal it was 46.7 µM; in the assay on LOX IMVI melanoma it was greater than 66.2 µM; in the assay with UACC-257 melanoma it was 40.3 µM.
With `COc1cc(Nc2nc3ccccc3cc2C(=O)Nc2ccc(F)c(F)c2)cc(OC)c1OC`, the GI50 in the assay on KM12 colon was 2.89 µM; with SNB-19 CNS, 3.55 µM; with OVCAR-8 ovarian, 2.77 µM; in the assay on M14 melanoma, 2.74 µM; in the assay on SK-MEL-2 melanoma it was 2.1 µM; in the assay with DU-145 prostate it was 4.25 µM. Further, the GI50 with ACHN renal is 2.51 µM; with UO-31 renal it was 2.51 µM; in the assay on LOX IMVI melanoma it was 2.66 µM; in the assay with UACC-257 melanoma, 2.6 µM. The TGI in the assay on KM12 colon is 16 µM; in the assay on SNB-19 CNS, greater than 100 µM; with OVCAR-8 ovarian it was 7.85 µM; with SK-MEL-2 melanoma, 5.98 µM; with DU-145 prostate, greater than 100 µM; with ACHN renal, 7.59 µM. The TGI was determined as 9.35 µM with UO-31 renal, 8.75 µM with LOX IMVI melanoma and 6.28 µM in the assay with UACC-257 melanoma.
Consider `NC(=O)c1cccc(Nc2nccc(Nc3cccc4[nH]ncc34)n2)c1`, for which the GI50 with KM12 colon was 9.78 µM; in the assay with SNB-19 CNS, 12.7 µM; in the assay with OVCAR-8 ovarian it was 8.11 µM; in the assay with M14 melanoma, 9.59 µM; in the assay with SK-MEL-2 melanoma it was 7.91 µM; in the assay with DU-145 prostate it was 9.7 µM. Also, the GI50 was 10.9 µM with ACHN renal, 12.4 µM in the assay with UO-31 renal, 6.07 µM in the assay on LOX IMVI melanoma and greater than 19.2 µM with UACC-257 melanoma. Moreover, the TGI with KM12 colon is greater than 25 µM; with SNB-19 CNS, greater than 25 µM; with OVCAR-8 ovarian it was greater than 25 µM; in the assay with M14 melanoma, greater than 25 µM; with SK-MEL-2 melanoma it was 17.8 µM; with DU-145 prostate it was greater than 25 µM. Besides, the TGI in the assay on ACHN renal was greater than 25 µM; in the assay with UO-31 renal it was greater than 25 µM; with LOX IMVI melanoma, greater than 18.4 µM; in the assay on UACC-257 melanoma, greater than 25 µM.
On to `CNC(=O)Cc1nc(-c2cccc(NS(=O)(=O)c3c(F)cccc3F)c2F)c(-c2ccnc(Nc3ccccc3)n2)s1`, for which the GI50 is 14.2 µM in the assay with KM12 colon; 14.3 µM in the assay with SNB-19 CNS; 7.32 µM with OVCAR-8 ovarian; 0.0108 µM in the assay on M14 melanoma; 0.419 µM in the assay on SK-MEL-2 melanoma; 12.6 µM in the assay with DU-145 prostate. In addition, the GI50 with ACHN renal is 0.889 µM; in the assay on UO-31 renal, 1.22 µM; with LOX IMVI melanoma, 0.0917 µM; in the assay with UACC-257 melanoma, 0.0142 µM. Also, the TGI in the assay with KM12 colon is greater than 50 µM; with SNB-19 CNS, greater than 50 µM; in the assay with OVCAR-8 ovarian, greater than 50 µM; in the assay with M14 melanoma it was 6.58 µM; in the assay on SK-MEL-2 melanoma, greater than 46 µM; in the assay with DU-145 prostate, greater than 50 µM. The results for the TGI with ACHN renal, in the assay with UO-31 renal and in the assay on LOX IMVI melanoma were greater than 50 µM, 13.7 µM and 5.38 µM, respectively.
For the compound `Cc1ccc(C)c(C2NC(=O)c3ccccc3N2)c1` (stereo not drawn), the TGI with KM12 colon is greater than 70.8 µM; in the assay with SNB-19 CNS it was greater than 49.5 µM; in the assay on OVCAR-8 ovarian, greater than 79.6 µM; in the assay with M14 melanoma it was 26.1 µM; with SK-MEL-2 melanoma, 72.6 µM; in the assay on DU-145 prostate it was greater than 50.9 µM. Further, the TGI in the assay with ACHN renal is greater than 89 µM; with UO-31 renal it was greater than 100 µM; in the assay on LOX IMVI melanoma it was greater than 100 µM; with UACC-257 melanoma it was greater than 100 µM.
`COc1cccc(/C=C/C(=O)c2ccc(Cl)cc2Cl)c1`: the GI50 is 17.2 µM with KM12 colon; 8.07 µM in the assay with SNB-19 CNS; 9.46 µM in the assay on OVCAR-8 ovarian; 10.3 µM with M14 melanoma; 20.3 µM with SK-MEL-2 melanoma; 9.42 µM in the assay on DU-145 prostate. The GI50 is 14.3 µM with ACHN renal, 17.4 µM with UO-31 renal, 15.3 µM in the assay with LOX IMVI melanoma and 9.33 µM with UACC-257 melanoma. In addition, the TGI with KM12 colon was greater than 50 µM; in the assay with SNB-19 CNS, 16.8 µM; in the assay on OVCAR-8 ovarian, 22.7 µM; with M14 melanoma, 22.3 µM; in the assay on SK-MEL-2 melanoma, greater than 50 µM; in the assay with DU-145 prostate, 17.3 µM. For the same compound, the TGI was 39.2 µM in the assay with ACHN renal, greater than 50 µM with UO-31 renal, greater than 50 µM in the assay on LOX IMVI melanoma and 17.4 µM with UACC-257 melanoma.
For the compound `COc1cc(CNc2ccccc2C(=O)N2CCN(C(=O)c3cc(-c4cc(OC)c(OC)c(OC)c4)n4nc(-c5ccccc5)cc4n3)CC2)cc(OC)c1OC`, the GI50 with KM12 colon was 2.78 µM; in the assay on SNB-19 CNS, 6.73 µM; in the assay with OVCAR-8 ovarian, 4.35 µM; with M14 melanoma, 4.05 µM; in the assay with SK-MEL-2 melanoma, 4.37 µM; with DU-145 prostate it was 3.96 µM. The GI50 in the assay on ACHN renal was 4.24 µM; with UO-31 renal it was 1.54 µM; with LOX IMVI melanoma, 4.86 µM; in the assay on UACC-257 melanoma, 4.97 µM. For the same compound, the TGI with KM12 colon, in the assay on SNB-19 CNS, in the assay with OVCAR-8 ovarian, with M14 melanoma, in the assay on SK-MEL-2 melanoma and in the assay with DU-145 prostate was greater than 100 µM throughout. The TGI in the assay on ACHN renal, in the assay on UO-31 renal, in the assay with LOX IMVI melanoma and with UACC-257 melanoma was greater than 100 µM throughout.
Take `O=Cc1cccc2c1Oc1c(cccc1C(=O)O)S2`: the TGI in the assay on KM12 colon was 44.3 µM; in the assay with SNB-19 CNS, greater than 100 µM; in the assay with OVCAR-8 ovarian it was greater than 100 µM; with M14 melanoma, greater than 100 µM; in the assay on SK-MEL-2 melanoma, greater than 100 µM; in the assay with DU-145 prostate, greater than 100 µM. In addition, the TGI in the assay with ACHN renal, in the assay with UO-31 renal, with LOX IMVI melanoma and in the assay on UACC-257 melanoma was greater than 100 µM each time.
Consider `Cc1cc(C)c(NC(=S)NC(=O)c2ccccc2)cc1C`, for which the TGI in the assay on KM12 colon, with SNB-19 CNS, in the assay on OVCAR-8 ovarian, with M14 melanoma, in the assay with SK-MEL-2 melanoma and in the assay with DU-145 prostate was greater than 100 µM in each case. Further, the TGI in the assay with ACHN renal, in the assay on UO-31 renal, in the assay on LOX IMVI melanoma and in the assay on UACC-257 melanoma was greater than 100 µM throughout.
As for `CC1(CCC(=O)OC2CCCCC2)OCCO1`, the TGI with KM12 colon, with SNB-19 CNS, in the assay on OVCAR-8 ovarian, in the assay on M14 melanoma, with SK-MEL-2 melanoma and with DU-145 prostate was greater than 100 µM in each case. Also, the TGI with ACHN renal, with UO-31 renal, in the assay with LOX IMVI melanoma and in the assay with UACC-257 melanoma was greater than 100 µM in each case.
